Activation data for 5 molecules are collected here from PMC10175918 (Communications Biology, 2023).

Like-named read-outs stand apart in the source and are kept apart here.

Experiment in all cases: TGFα-shedding assay-based GPCR screening with chimeric Gα subunit proteins
Format in all cases: cell-based
Common to all, as to conditions: 10µM, Favipiravir 100μM

For test [1], the target named is 348 GPCRs (Homo sapiens, UniProt P28221).
For test [2], the target named is T1, 348 GPCRs (Homo sapiens, UniProt P32246).
T1 construct: expressed in transfected cells; host or cells: HEK293A
T1 sequence (P32246 1-355): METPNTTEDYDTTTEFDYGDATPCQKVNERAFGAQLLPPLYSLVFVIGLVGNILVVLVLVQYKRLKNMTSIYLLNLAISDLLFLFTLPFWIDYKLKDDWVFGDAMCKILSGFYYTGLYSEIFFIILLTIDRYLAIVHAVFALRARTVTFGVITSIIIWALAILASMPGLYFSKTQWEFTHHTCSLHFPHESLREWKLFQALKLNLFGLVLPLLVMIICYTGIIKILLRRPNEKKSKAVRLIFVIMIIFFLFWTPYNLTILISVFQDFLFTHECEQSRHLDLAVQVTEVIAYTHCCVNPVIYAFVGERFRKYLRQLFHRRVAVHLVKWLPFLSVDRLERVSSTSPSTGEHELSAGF

Test [3] deals with T2, 348 GPCRs (Homo sapiens, UniProt P51686).
T2 construct: expressed in transfected cells; host or cells: HEK293A
T2 sequence (P51686 1-369): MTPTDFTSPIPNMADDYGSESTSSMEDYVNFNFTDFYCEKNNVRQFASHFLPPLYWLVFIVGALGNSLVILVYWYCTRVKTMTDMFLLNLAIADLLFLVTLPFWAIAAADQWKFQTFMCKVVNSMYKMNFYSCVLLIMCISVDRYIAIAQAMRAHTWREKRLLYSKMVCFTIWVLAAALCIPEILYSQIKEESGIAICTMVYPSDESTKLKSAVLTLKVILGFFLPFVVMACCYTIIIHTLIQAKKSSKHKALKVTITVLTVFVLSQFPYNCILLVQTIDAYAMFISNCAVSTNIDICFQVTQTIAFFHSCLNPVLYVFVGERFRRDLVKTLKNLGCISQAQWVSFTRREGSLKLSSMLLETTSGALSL

Test [4] addresses T3, 348 GPCRs (Homo sapiens, UniProt P50052).
T3 construct: expressed in transfected cells; host or cells: HEK293A
T3 sequence (P50052 1-363): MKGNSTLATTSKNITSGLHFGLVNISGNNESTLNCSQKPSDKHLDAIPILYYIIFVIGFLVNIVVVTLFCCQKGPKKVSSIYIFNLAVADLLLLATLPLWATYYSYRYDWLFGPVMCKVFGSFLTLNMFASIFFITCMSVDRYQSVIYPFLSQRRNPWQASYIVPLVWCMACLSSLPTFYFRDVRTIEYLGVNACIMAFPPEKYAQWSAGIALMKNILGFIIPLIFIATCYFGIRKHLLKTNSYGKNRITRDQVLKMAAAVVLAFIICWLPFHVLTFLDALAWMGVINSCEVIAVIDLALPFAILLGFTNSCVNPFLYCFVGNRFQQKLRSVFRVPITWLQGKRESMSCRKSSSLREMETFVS

For test [5], the target named is T4, 348 GPCRs (Homo sapiens, UniProt Q5T848).
T4 construct: expressed in transfected cells; host or cells: HEK293A
T4 sequence (Q5T848 24-1215): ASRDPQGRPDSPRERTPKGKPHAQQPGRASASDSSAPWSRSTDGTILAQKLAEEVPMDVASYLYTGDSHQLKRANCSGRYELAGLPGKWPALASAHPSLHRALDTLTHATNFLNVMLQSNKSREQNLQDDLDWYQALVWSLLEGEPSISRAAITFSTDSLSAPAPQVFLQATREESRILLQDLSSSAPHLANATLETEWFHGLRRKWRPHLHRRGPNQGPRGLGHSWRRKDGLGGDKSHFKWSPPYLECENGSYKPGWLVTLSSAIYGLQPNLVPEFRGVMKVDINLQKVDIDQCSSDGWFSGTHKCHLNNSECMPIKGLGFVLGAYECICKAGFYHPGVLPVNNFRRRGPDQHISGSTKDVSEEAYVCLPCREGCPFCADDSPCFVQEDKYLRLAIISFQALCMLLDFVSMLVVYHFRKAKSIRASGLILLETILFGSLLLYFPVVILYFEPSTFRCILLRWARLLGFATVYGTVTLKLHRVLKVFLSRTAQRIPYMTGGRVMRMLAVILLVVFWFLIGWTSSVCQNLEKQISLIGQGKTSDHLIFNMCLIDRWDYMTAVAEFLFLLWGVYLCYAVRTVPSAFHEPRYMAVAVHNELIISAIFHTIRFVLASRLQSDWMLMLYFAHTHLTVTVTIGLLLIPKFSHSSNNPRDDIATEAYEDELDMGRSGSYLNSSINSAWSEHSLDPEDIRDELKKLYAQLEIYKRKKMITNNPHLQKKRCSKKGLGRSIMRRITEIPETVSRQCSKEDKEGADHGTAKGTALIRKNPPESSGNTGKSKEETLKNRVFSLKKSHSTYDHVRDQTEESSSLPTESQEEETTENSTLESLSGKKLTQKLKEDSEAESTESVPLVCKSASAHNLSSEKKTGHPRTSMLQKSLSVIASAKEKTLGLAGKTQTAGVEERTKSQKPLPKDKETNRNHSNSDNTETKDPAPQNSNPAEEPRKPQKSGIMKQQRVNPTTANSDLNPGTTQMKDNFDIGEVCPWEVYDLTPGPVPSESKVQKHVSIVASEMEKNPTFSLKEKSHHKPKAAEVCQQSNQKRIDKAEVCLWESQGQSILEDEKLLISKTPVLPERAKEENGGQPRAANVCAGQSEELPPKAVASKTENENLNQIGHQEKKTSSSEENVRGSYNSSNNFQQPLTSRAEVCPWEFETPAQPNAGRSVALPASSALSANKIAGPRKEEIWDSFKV

Where [6] appears, read: read-out: % GPCR activation compared to TPA, 5-HT1D (5-hydroxytryptamine receptor 1D).
Setting [7] is: read-out: % GPCR activation compared to TPA, CCR1 (chemokine (C-C motif) receptor 1).
The mark [8] stands for this setting: read-out: % GPCR activation compared to TPA, CCR9 (chemokine (C-C motif) receptor 9).
Setting [9] is: read-out: % GPCR activation compared to TPA, AGTR2 (angiotensin II receptor, type 2).
The mark [10] stands for this setting: read-out: % GPCR activation compared to TPA, GPR158 (G Protein-Coupled Receptor 158).
Setting [11] is: 5-HT1D (5-hydroxytryptamine receptor 1D), read-out: % GPCR activation compared to TPA.
Where [12] appears, read: CCR1 (chemokine (C-C motif) receptor 1), read-out: % GPCR activation compared to TPA.
Where [13] appears, read: CCR9 (chemokine (C-C motif) receptor 9), read-out: % GPCR activation compared to TPA.
[14] abbreviates: AGTR2 (angiotensin II receptor, type 2), read-out: % GPCR activation compared to TPA.
Where [15] appears, read: GPR158 (G Protein-Coupled Receptor 158), read-out: % GPCR activation compared to TPA.

Sequence of 348 GPCRs (Homo sapiens, UniProt P28221) (P28221 whole entry): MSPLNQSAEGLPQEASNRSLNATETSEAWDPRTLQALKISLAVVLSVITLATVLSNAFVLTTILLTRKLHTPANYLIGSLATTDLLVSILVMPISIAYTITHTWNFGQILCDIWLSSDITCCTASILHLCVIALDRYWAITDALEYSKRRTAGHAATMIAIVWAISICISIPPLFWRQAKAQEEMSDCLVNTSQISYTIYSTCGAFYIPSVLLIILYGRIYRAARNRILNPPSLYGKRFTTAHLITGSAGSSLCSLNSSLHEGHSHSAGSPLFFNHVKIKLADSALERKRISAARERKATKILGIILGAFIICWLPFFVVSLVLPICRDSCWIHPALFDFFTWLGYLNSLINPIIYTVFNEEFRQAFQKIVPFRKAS

Turning to `CC(C)OC(=O)[C@H](C)N[P@](=O)(OC[C@H]1O[C@@H](n2ccc(=O)[nH]c2=O)[C@](C)(F)[C@@H]1O)Oc1ccccc1` [sofosbuvir], the activation at 100 µM was 0.836% at 348 GPCRs [1] (setting [6]) and -1.9% on 348 GPCRs [2] (setting [7]). In addition, the activation at 10 µM on 348 GPCRs [3] (setting [8]) was -0.977%; at 348 GPCRs [4] (setting [9]) it was 1.67%; at 348 GPCRs [5] (setting [10]), 3.31%.

As for `NC(=O)c1nc(F)cnc1O` [favipiravir, 6-fluoro-3-hydroxy-2-pyrazinecarboxamide], the activation at 100 µM is -9.38% on 348 GPCRs [1] (setting [11]) and 5.15% on 348 GPCRs [2] (setting [12]). The activation at 10 µM amounted to 2.47% at 348 GPCRs [3] (setting [13]), 0.741% on 348 GPCRs [4] (setting [14]) and 2.24% on 348 GPCRs [5] (setting [15]).

Turning to `CCC(CC)COC(=O)[C@H](C)N[P@](=O)(OC[C@H]1O[C@@](C#N)(c2ccc3c(N)ncnn23)[C@H](O)[C@@H]1O)Oc1ccccc1` [remdesivir], the activation at 100 µM on 348 GPCRs [1] (setting [6]) was -5.77%; on 348 GPCRs [2] (setting [7]), 2.29%. In addition, the activation at 10 µM at 348 GPCRs [3] (setting [8]) was -0.902%; at 348 GPCRs [4] (setting [9]), 0.676%; at 348 GPCRs [5] (setting [10]), 0.972%.

Take `N#C[C@@]1(c2ccc3c(N)ncnn23)O[C@H](CO)[C@@H](O)[C@H]1O` [GS441524]: the activation at 100 µM at 348 GPCRs [1] (setting [11]) is -9.87%; at 348 GPCRs [2] (setting [12]), 4.02%. Besides, the activation at 10 µM at 348 GPCRs [3] (setting [13]) is 2.4%; at 348 GPCRs [4] (setting [14]), 0.337%; on 348 GPCRs [5] (setting [15]) it was 0.213%.

Regarding `CC(C)C(=O)OC[C@H]1O[C@@H](n2ccc(NO)nc2=O)[C@H](O)[C@@H]1O` [molnupiravir], the activation at 100 µM on 348 GPCRs [1] (setting [11]) is 0.705%; on 348 GPCRs [2] (setting [12]) it was -1.8%. Moreover, the results for the activation at 10 µM on 348 GPCRs [3] (setting [13]), on 348 GPCRs [4] (setting [14]) and at 348 GPCRs [5] (setting [15]) were -1.34%, 0.537% and 1.57%, respectively.
